Series [1] can be described thus: Stability in simulated intestinal fluid. To be noted: 100 μM, 2 hours at 37° C., percent of the peak area at time zero. The series is classed as in vitro ADME. The procedure, abridged:
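Compounds at 100 μM final, in duplicate, kept 2 h at 37° C in USP gastric fluid (pepsin) or intestinal fluid (pancreatin). Quenched with cold acetonitrile, supernatant analysed by C-18 HPLC, UV 252 nm. Remaining compound expressed as percent of time-zero peak area.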

The nature of series [2]: Plasma pharmacokinetics following a single oral dose in CD-1 mice. Format: in vivo. The conditions noted are these: single oral dose 25 mg/kg in PEG 200, CD-1 male mice; given at 1 μmol/kg. The method in brief: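 Male CD-1 mice given a single oral 25 mg/kg dose in PEG 200, with terminal plasma and liver taken from three animals per time point at 4, 12 and 24 h. Plasma 2′-methylguanosine measured by LC-MS/MS in positive ion mode with a deuterated internal standard, calibrated over 0.500 (LLOQ) to 200 ng/mL.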

The nature of series [3]: Stability in mouse blood. Format: in vitro ADME. To be noted: on ice, percent unchanged test compound. The procedure, abridged: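 Test compound at 0.5 μM final in whole blood, held on ice; sampled at 0, 0.5 and 1 hr in triplicate. Samples quenched with acetonitrile containing internal standard and analysed by LC-MS/MS; percent unchanged compound from peak area ratio to internal standard.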

Series [4] is described as follows: Stability in liver subcellular fractions (microsomes). The series is classed as in vitro ADME, human. To be noted: 10 μM, 1.0 mg/mL microsomal protein, NADPH, 60 min, percent unchanged test compound. As to the method: Stability of compounds were determined in subcellular fractions (microsomes) of human liver in duplicate for each matrix. Pooled liver microsomal proteins (1.0 mg/mL), suspended in incubation buffer (100 mM potassium phosphate, pH 7.4, 5 mM MgCl2, and 0.1 mM EDTA), were preincubated for 5 min at 37° C. with 10 μM of a test compound from a 10 mM stock solution in DMSO (final DMSO concentration was 0.1%); the reaction was initiated by the addition of NADPH (3 mM final concentration). At specific times (0 and 60 min), 0.1 mL samples were taken and the reaction terminated by the addition of 4 volumes of stop solution (acetonitrile with 500 ng/mL carbutamide as an internal standard). The samples were vortexed for 30 sec and then centrifuged at 16,000 g for 10 min. 100 μL of supernatants were transferred to 96 deep-well plates preloaded with 100 μL distilled water and analyzed after mixing by LC-MS/MS. The MS peak area ratio of the test compounds versus the internal standard was calculated and percent unchanged test compound over 60 minutes was calculated using this ratio.

Structures are written as SMILES.

On to `CCOc1nc(N)nc2c1ncn2[C@@H]1O[C@@H]2COP(=O)(OCCCC(=O)OC(C)C)O[C@H]2[C@@]1(C)F` (single isomer, unassigned) [Compound 20 Diastereomer 1], for which the “Stability SIF” value in series [1] is reported as 95%. Also, in series [2], the “Ms Plasma 2′-MeG AUC” value turned out to be 58 pmol · hr/mL at 1 μmol/kg and the “Ms Plasma 2′-MeG Cmax” value was 5.9 pmol/mL at 1 μmol/kg. Further, in series [3], the “Stability WB_Mouse (ice; 1 hr)” value was 1%. The “Stability HLM (1 hr)” value in series [4] was 0.35%.

The record behind these values is patent US9296778B2, “3′,5′-cyclic phosphate prodrugs for HCV infection” (Idenix Pharmaceuticals, Inc., priority 2012, dated 2016).
